Source: ChEMBL document CHEMBL4392837, “Identification of highly potent and selective MMP2 inhibitors addressing the S1' subsite with d-proline-based compounds” (Bioorg Med Chem, 2019)
The source made the active and inactive calls. No cut-off for these calls is given here.

Species on record: Homo sapiens
Assay: Inhibition of cell migration of human A375M6 cells at 1 to 10 uM incubated for 6 hrs by Boyden chambers assay
Assay type: functional

CNC(=O)[C@H](Cc1c[nH]c2ccccc12)NC(=O)[C@@H](CC(=O)NO)CC(C)C
inhibition: Active
